The text below walks through data of ChEMBL document CHEMBL1687828, “Extremely drug-resistant Citrobacter freundii isolate producing NDM-1 and other carbapenemases identified in a patient returning from India” (2011).

Test [1] relates to Citrobacter freundii. The experiment in a line: Antibacterial activity against drug-resistant Citrobacter freundii isolate producing metallo-beta-lactamase NDM-1 with carbapenemase activity isolated from urine culture of cerebral vascular malformation patient. Type of test: functional.
Test [2] deals with Citrobacter freundii. The test is described as follows: Antibacterial activity against drug-resistant Citrobacter freundii isolate producing metallo-beta-lactamase NDM-1 with carbapenemase activity isolated from urine culture of cerebral vascular malformation patient by Etest. In kind it is functional, organism-based.

Consider `C[C@@H](O)[C@H]1C(=O)N2C(C(=O)O)=C(S[C@@H]3CN[C@H](C(=O)Nc4cccc(C(=O)O)c4)C3)[C@H](C)[C@H]12` [ERTAPENEM], for which the MIC against Citrobacter freundii [1] was > 32 µg/mL. COLISTIN registered an MIC against Citrobacter freundii [2] of 0.5 µg/mL. As to `C[C@@H](O)[C@H]1C(=O)N2C(C(=O)O)=C(S[C@@H]3CN[C@H](C(=O)N(C)C)C3)[C@H](C)[C@H]12` [MEROPENEM], the MIC with Citrobacter freundii [1] was > 32 µg/mL.

As for `C[C@@H](O)[C@H]1C(=O)N2C(C(=O)O)=C(SCCNC=N)C[C@H]12` [IMIPENEM ANHYDROUS], the MIC against Citrobacter freundii [1] is > 32 µg/mL.

A word on the MIC: it is the lowest concentration that inhibits growth of the organism. A low value points to inhibition by little substance.
